Assay results published in US20190292179A1 (BRISTOL-MYERS SQUIBB COMPANY, priority 2016, published 2019).
Counter-ions that a name gives are not always drawn.

What was measured:
HIS-TGFβR1 T204D = biological target: T1, HIS-TGFβR1 T204D (Homo sapiens, UniProt P36897, T204D); experiment: HTRF probe-displacement assay with HIS-TGFβR1 T204D; format: binding; details: 1 nM HIS-TGFβR1 T204D, labeled probe at Kd, 1 hour at room temperature
T1 sequence (P36897 34-503 T204D): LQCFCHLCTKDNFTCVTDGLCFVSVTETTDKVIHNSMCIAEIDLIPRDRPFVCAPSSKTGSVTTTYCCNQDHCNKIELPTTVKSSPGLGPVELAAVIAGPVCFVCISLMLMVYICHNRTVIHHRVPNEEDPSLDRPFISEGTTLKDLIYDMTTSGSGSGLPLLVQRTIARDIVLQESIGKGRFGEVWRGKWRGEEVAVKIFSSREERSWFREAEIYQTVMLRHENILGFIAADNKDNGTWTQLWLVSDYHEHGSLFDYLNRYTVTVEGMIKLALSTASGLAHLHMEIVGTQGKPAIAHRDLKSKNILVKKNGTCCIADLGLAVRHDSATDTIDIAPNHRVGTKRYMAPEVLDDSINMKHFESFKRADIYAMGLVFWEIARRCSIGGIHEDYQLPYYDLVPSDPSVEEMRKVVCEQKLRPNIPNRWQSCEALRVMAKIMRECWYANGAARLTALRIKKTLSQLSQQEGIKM
How it was run: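 Binding read as HTRF probe displacement with 1 nM HIS-tagged kinase, 0.2 nM anti-HIS antibody, labelled probe at Kd and 0.5% DMSO, 1 h at room temperature (Ex 340, Em 520/495 nm). Eleven-point dose response normalised to no-enzyme and vehicle controls; IC50 from non-linear regression.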

HIS-TGFβR2 WT = HIS-TGFβR2 WT (Homo sapiens, UniProt P37173); experiment: HTRF probe-displacement assay with HIS-TGFβR2 WT; format: binding; details: 1 nM HIS-TGFβR2 WT, labeled probe at Kd, 1 hour at room temperature
HIS-TGFβR2 WT, sequence (P37173 23-567): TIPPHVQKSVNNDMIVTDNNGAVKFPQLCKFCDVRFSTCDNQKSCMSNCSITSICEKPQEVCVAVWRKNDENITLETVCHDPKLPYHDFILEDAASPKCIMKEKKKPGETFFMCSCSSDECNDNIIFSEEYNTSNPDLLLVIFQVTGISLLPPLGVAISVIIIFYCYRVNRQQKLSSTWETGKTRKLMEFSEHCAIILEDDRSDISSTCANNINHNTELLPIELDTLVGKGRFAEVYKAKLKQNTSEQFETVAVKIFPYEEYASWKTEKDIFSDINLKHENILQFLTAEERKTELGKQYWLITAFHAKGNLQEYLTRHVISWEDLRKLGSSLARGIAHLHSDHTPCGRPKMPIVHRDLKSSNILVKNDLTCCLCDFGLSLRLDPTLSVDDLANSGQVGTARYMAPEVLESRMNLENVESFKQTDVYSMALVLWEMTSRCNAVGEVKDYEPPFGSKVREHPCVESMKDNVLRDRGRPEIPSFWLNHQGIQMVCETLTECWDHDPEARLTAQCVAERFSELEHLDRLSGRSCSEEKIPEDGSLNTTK
Method: The reaction is incubated for 1 hour at room temperature and the HTRF signal was measured on an Envision plate reader (Ex: 340 nm; Em: 520 nm/495 nm). Inhibition data were calculated by comparison to no enzyme control reactions for 100% inhibition and vehicle-only reactions for 0% inhibition. The final concentration of reagents in the assay are 1 nM HIS-TGFβR1 T204D or HIS-TGFβR2 WT, 0.2 nM anti-HIS detection antibody, labeled small molecule probe (at Kd) and 0.5% DMSO. Dose response curves were generated to determine the concentration required inhibiting 50% of kinase activity (IC50). Compounds were dissolved at 10 mM in dimethylsulfoxide (DMSO) and evaluated at eleven concentrations. IC50 values were derived by non-linear regression analysis.

Row | IC50 (HIS-TGFβR1 T204D) [µM] | IC50 (HIS-TGFβR2 WT) [µM] | SMILES
1 | 0.042 | 0.165 | Cn1cc(-c2ccc3ncc(C#N)n3c2)c(-c2ccc(F)cc2)n1 [Example 37, 6-(3-(4-fluorophenyl)-1-methyl-1H-pyrazol-4-yl)imidazo[1,2-a]pyridine-3-carbonitrile]
2 | 0.002 | 1.54 | Cn1cc(-c2ccc3ncc(C(N)=O)n3c2)c(-c2ccc(F)cc2)n1 [Example 38, 6-(3-(4-fluorophenyl)-1-methyl-1H-pyrazol-4-yl)imidazo[1,2-a]pyridine-3-carboxamide]
3 | 0.004 | 1.65 | Fc1ccc(-c2n[nH]cc2-c2ccc3nccn3n2)cc1Cl [Example 39, 6-(3-(3-chloro-4-fluorophenyl)-1H-pyrazol-4-yl)imidazo[1,2-b]pyridazine, TFA]
4 | 0.003 | 4.97 | Fc1ccc(-c2n[nH]cc2-c2ccc3nccn3c2)cc1Cl [Example 40, 6-(3-(3-chloro-4-fluorophenyl)-1H-pyrazol-4-yl)imidazo[1,2-a]pyridine, TFA]
5 | 0.001 | 0.098 | N#Cc1cnc2ccc(-c3c[nH]nc3-c3ccc(F)c(Cl)c3)cn12 [Example 41, 6-(3-(3-chloro-4-fluorophenyl)-1H-pyrazol-4-yl)imidazo[1,2-a]pyridine-3-carbonitrile]
6 | 0.001 | 0.33 | NC(=O)c1cnc2ccc(-c3c[nH]nc3-c3ccc(F)c(Cl)c3)cn12 [Example 42, 6-(3-(3-chloro-4-fluorophenyl)-1H-pyrazol-4-yl)imidazo[1,2-a]pyridine-3-carboxamide, TFA]
7 | 0.001 | 0.463 | N#CCn1cc(-c2ccc3ncc(C#N)n3c2)c(-c2ccc(F)c(Cl)c2)n1 [Example 43, 6-(3-(3-chloro-4-fluorophenyl)-1-(cyanomethyl)-1H-pyrazol-4-yl)imidazo[1,2-a]pyridine-3-carbonitrile]
8 | 0.002 | 0.369 | N#Cc1cnc2ccc(-c3cn(CCO)nc3-c3ccc(F)c(Cl)c3)cn12 [Example 44, 6-(3-(3-chloro-4-fluorophenyl)-1-(2-hydroxyethyl)-1H-pyrazol-4-yl)imidazo[1,2-a]pyridine-3-carbonitrile]
9 | 0.112 | 4.23 | Clc1ccc(-c2n[nH]cc2-c2ccc3nccn3c2)cc1 [Example 45, 6-(3-(4-chlorophenyl)-1H-pyrazol-4-yl)imidazo[1,2-a]pyridine]
10 | 0.092 | 0.214 | N#Cc1cnc2ccc(-c3c[nH]nc3-c3ccc(Cl)cc3)cn12 [Example 46, 6-(3-(4-chlorophenyl)-1H-pyrazol-4-yl)imidazo[1,2-a]pyridine-3-carbonitrile]
11 | 0.004 | 0.709 | NC(=O)c1cnc2ccc(-c3c[nH]nc3-c3ccc(Cl)cc3)cn12 [Example 47, 6-(3-(4-chlorophenyl)-1H-pyrazol-4-yl)imidazo[1,2-a]pyridine-3-carboxamide]
12 | 0.002 | 4.12 | Cc1cc(-c2n[nH]cc2-c2ccc3nccn3c2)ccc1F [Example 48, 6-(3-(4-fluoro-3-methylphenyl)-1H-pyrazol-4-yl)imidazo[1,2-a]pyridine]
13 | 0.001 | 0.104 | Cc1cc(-c2n[nH]cc2-c2ccc3ncc(C#N)n3c2)ccc1F [Example 49, 6-(3-(4-fluoro-3-methylphenyl)-1H-pyrazol-4-yl)imidazo[1,2-a]pyridine-3-carbonitrile]
14 | 0.001 | 2.23 | CCOC(=O)c1cnc2ccc(-c3cn(C)nc3-c3cccc(C)n3)cn12 [Example 51, ethyl 6-(1-methyl-3-(6-methylpyridin-2-yl)-1H-pyrazol-4-yl)imidazo[1,2-a]pyridine-3-carboxylate]
15 | 0.006 | 4.93 | Fc1ccc(-c2n[nH]cc2-c2ccc3nccn3n2)cc1 [Example 55, 6-(3-(4-fluorophenyl)-1H-pyrazol-4-yl)imidazo[1,2-b]pyridazine]
16 | 0.007 | 0.533 | Fc1ccc(-c2n[nH]cc2-c2ccc3ncc(F)n3c2)cc1 [Example 56, 3-fluoro-6-(3-(4-fluorophenyl)-1H-pyrazol-4-yl)imidazo[1,2-a]pyridine]

Row | IC50 (HIS-TGFβR1 T204D) [µM] | IC50 (HIS-TGFβR2 WT) [µM] | SMILES
17 | 0.003 | 3.71 | CCOC(=O)c1cnc2ccc(-c3c[nH]nc3-c3ccc(F)cc3)cn12 [Example 57, ethyl 6-(3-(4-fluorophenyl)-1H-pyrazol-4-yl)imidazo[1,2-a]pyridine-3-carboxylate]
18 | 0.241 | 5.34 | CC(C)(O)c1cnc2ccc(-c3c[nH]nc3-c3ccc(F)cc3)cn12 [Example 59, 2-(6-(3-(4-fluorophenyl)-1H-pyrazol-4-yl)imidazo[1,2-a]pyridin-3-yl)propan-2-ol]
19 | 0.007 | 2.28 | N#Cc1cnc2ccc(-c3cn(CC(F)F)nc3-c3ccc(F)c(Cl)c3)cn12 [Example 61, 6-(3-(3-chloro-4-fluorophenyl)-1-(2,2-difluoroethyl)-1H-pyrazol-4-yl)imidazo[1,2-a]pyridine-3-carbonitrile]
20 | 0.001 | 0.012 | Cc1cccc(-c2n[nH]c(C)c2-c2ccc3ncc(C(N)=O)n3c2)n1 [Example 64, 6-(5-methyl-3-(6-methylpyridin-2-yl)-1H-pyrazol-4-yl)imidazo[1,2-a]pyridine-3-carboxamide]
21 | 0.001 | 0.194 | Cc1cccc(-c2nn(C)c(C)c2-c2ccc3ncc(C(N)=O)n3c2)n1 [Example 65, 6-(1,5-dimethyl-3-(6-methylpyridin-2-yl)-1H-pyrazol-4-yl)imidazo[1,2-a]pyridine-3-carboxamide]
22 | 0.001 | 0.277 | Cc1[nH]nc(-c2cccc(F)n2)c1-c1ccc2ncc(C#N)n2c1 [Example 66, 6-(3-(6-fluoropyridin-2-yl)-5-methyl-1H-pyrazol-4-yl)imidazo [1,2-a]pyridine-3-carbonitrile]
23 | 0.004 | 11.1 | CC(C)c1[nH]nc(-c2ccc(F)cc2)c1-c1ccc2ncc(C#N)n2c1 [Example 67, 6-(3-(4-fluorophenyl)-5-isopropyl-1H-pyrazol-4-yl)imidazo[1,2-a]pyridine-3-carbonitrile]
24 | 0.001 | 0.176 | CC(C)c1[nH]nc(-c2ccc(F)cc2)c1-c1ccc2ncc(C(N)=O)n2c1 [Example 68, 6-(3-(4-fluorophenyl)-5-isopropyl-1H-pyrazol-4-yl) imidazo [1,2-a]pyridine-3-carboxamide]
25 | 0.001 | 6.1 | CC(C)c1[nH]nc(-c2ccc(F)cc2)c1-c1ccc2[nH]ncc2c1 [Example 70, 5-(3-(4-fluorophenyl)-5-isopropyl-1H-pyrazol-4-yl)-1H-indazole]
26 | 0.002 | 0.963 | CC(C)c1c(-c2ccc3ncc(C(N)=O)n3c2)c(-c2ccc(F)cc2)nn1C [Example 72]
27 | 0.001 | 6.59 | CC(C)c1[nH]nc(-c2ccc(Cl)cc2)c1-c1ccc2ncc(C(N)=O)n2c1 [Example 76, 6-(3-(4-chlorophenyl)-5-isopropyl-1H-pyrazol-4-yl)imidazo[1,2-a]pyridine-3-carboxamide]
28 | 0.001 | 6.67 | Cc1cc(-c2n[nH]c(C(C)C)c2-c2ccc3ncc(C#N)n3c2)ccc1F [Example 78, 6-(3-(4-fluoro-3-methylphenyl)-5-isopropyl-1H-pyrazol-4-yl)imidazo[1,2-a]pyridine-3-carbonitrile]
29 | 0.001 | 0.136 | Cc1cc(-c2n[nH]c(C(C)C)c2-c2ccc3ncc(C(N)=O)n3c2)ccc1F [Example 79, 6-(3-(4-fluoro-3-methylphenyl)-5-isopropyl-1H-pyrazol-4-yl)imidazo[1,2-a]pyridine-3-carboxamide]
30 | 0.003 | 2.68 | N#Cc1cnc2ccc(-c3c(-c4ccc(F)cc4)n[nH]c3C3CC3)cn12 [Example 84, 6-(5-cyclopropyl-3-(4-fluorophenyl)-1H-pyrazol-4-yl)imidazo[1,2-a]pyridine-3-carbonitrile]
31 | 0.004 | 14.6 | Fc1ccc(-c2n[nH]c(C3CC3)c2-c2ccc3nccn3c2)cc1 [Example 86, 6-(5-cyclopropyl-3-(4-fluorophenyl)-1H-pyrazol-4-yl)imidazo [1,2-a]pyridine]
32 | 0.002 | 6.9 | Fc1ccc(-c2n[nH]c(C3CC3)c2-c2ccc3nccn3n2)cc1 [Example 87, 6-(5-cyclopropyl-3-(4-fluorophenyl)-1H-pyrazol-4-yl)imidazo [1,2-b]pyridazine]
